Values after ≈ are worked out from the molar mass of the structure shown. Active and inactive are the calls of the source. The rule behind the calls is not given here.
Key:
Staphylococcus aureus [1] = assay: Antibacterial activity against methicillin-resistant Staphylococcus aureus N315 after 24 hrs by micro broth dilution method; type: functional; settings: N315, 24 h
Staphylococcus aureus [2] = assay: Antibacterial activity against Staphylococcus aureus ATCC 25923 after 24 hrs by micro broth dilution method; type: functional; settings: ATCC 25923, 24 h
Bacillus subtilis = assay: Antibacterial activity against Bacillus subtilis after 24 hrs by micro broth dilution method; type: functional
Micrococcus luteus = assay: Antibacterial activity against Micrococcus luteus ATCC 4698 after 24 hrs by micro broth dilution method; type: functional; settings: NCTC 2665, 24 h
Escherichia coli [3] = assay: Antibacterial activity against Escherichia coli DH52 after 24 hrs by micro broth dilution method; type: functional; settings: DH52, 24 h
Escherichia coli [4] = assay: Antibacterial activity against Escherichia coli JM109 after 24 hrs by micro broth dilution method; type: functional; settings: JM109, 24 h
Shigella dysenteriae [5] = assay: Antibacterial activity against Shigella dysenteriae after 24 hrs by micro broth dilution method; type: functional
Pseudomonas aeruginosa = assay: Antibacterial activity against Pseudomonas aeruginosa after 24 hrs by micro broth dilution method; type: functional
Bacillus = assay: Antibacterial activity against Bacillus proteus ATCC 13315 after 24 hrs by micro broth dilution method; type: functional; settings: ATCC 13315, 24 h
Salmonella typhi = assay: Antibacterial activity against Bacillus typhi after 24 hrs by micro broth dilution method; type: functional, Salmonella enterica subsp. enterica serovar Typhi; settings: Salmonella enterica
Candida albicans = assay: Antifungal activity against Candida albicans after 24 hrs by two fold serial dilution based spectrophotometric analysis; type: functional
Pichia norvegensis = assay: Antifungal activity against Candida mycoderma after 24 hrs by two fold serial dilution based spectrophotometric analysis; type: functional
Cyberlindnera jadinii = assay: Antifungal activity against Candida utilis after 24 hrs by two fold serial dilution based spectrophotometric analysis; type: functional; settings: Williopsis jadinii
Aspergillus flavus [6] = assay: Antifungal activity against Aspergillus flavus after 24 hrs by two fold serial dilution based spectrophotometric analysis; type: functional
Saccharomyces cerevisiae = assay: Antifungal activity against Beer yeast after 24 hrs by two fold serial dilution based spectrophotometric analysis; type: functional
Aspergillus flavus [7] = assay: Potency index, ratio of fluconazole MIC to compound MIC for Aspergillus flavus; type: functional
Shigella dysenteriae [8] = assay: Potency index, ratio of norfloxacin MIC to compound MIC for Shigella dysenteriae; type: functional
Shigella dysenteriae [9] = assay: Potency index, ratio of chloromycin MIC to compound MIC for Shigella dysenteriae; type: functional
Staphylococcus aureus [10] = assay: Antibacterial activity against methicillin-resistant Staphylococcus aureus N315 after 1 passage; type: functional
Staphylococcus aureus [11] = assay: Antibacterial activity against methicillin-resistant Staphylococcus aureus N315 after 2 passages; type: functional
Staphylococcus aureus [12] = assay: Antibacterial activity against methicillin-resistant Staphylococcus aureus N315 after 3 passages; type: functional
Staphylococcus aureus [13] = assay: Antibacterial activity against methicillin-resistant Staphylococcus aureus N315 after 4 passages; type: functional
Staphylococcus aureus [14] = assay: Antibacterial activity against methicillin-resistant Staphylococcus aureus N315 after 5 passages; type: functional
Staphylococcus aureus [15] = assay: Antibacterial activity against methicillin-resistant Staphylococcus aureus N315 after 6 passages; type: functional
Staphylococcus aureus [16] = assay: Antibacterial activity against methicillin-resistant Staphylococcus aureus N315 after 7 passages; type: functional
Staphylococcus aureus [17] = assay: Antibacterial activity against methicillin-resistant Staphylococcus aureus N315 after 8 passages; type: functional
Staphylococcus aureus [18] = assay: Potency index, ratio of norfloxacin MIC to compound MIC for methicillin-resistant Staphylococcus aureus N315; type: functional
Staphylococcus aureus [19] = assay: Potency index, ratio of chloromycin MIC to compound MIC for methicillin-resistant Staphylococcus aureus N315; type: functional
Staphylococcus aureus [20] = assay: Bactericidal activity against methicillin-resistant Staphylococcus aureus N315 assessed as reduction in bacterial load at 4 times MIC up to 1 hr by time kill assay; type: functional
Staphylococcus aureus [21] = assay: Antibacterial activity against methicillin-resistant Staphylococcus aureus N315 after 16 passages; type: functional, organism-based
Calf thymus DNA [22] = assay: Binding affinity to calf thymus DNA assessed as DNA intercalation by UV-Visible spectroscopic method; type: nucleic-acid assay; settings: Bos taurus
Calf thymus DNA [23] = assay: Binding affinity to calf thymus DNA assessed as hypsochromic shift by UV-Visible spectroscopic method; type: nucleic-acid assay; settings: Bos taurus
Calf thymus DNA [24] = assay: Binding affinity to calf thymus DNA assessed as hypochromic shift by UV-Visible spectroscopic method; type: nucleic-acid assay; settings: Bos taurus
Calf thymus DNA [25] = assay: Inhibition of neutral red binding to calf thymus DNA by UV-Visible spectroscopic method; type: nucleic-acid assay; settings: Bos taurus
Staphylococcus aureus [26] = assay: Bactericidal activity against methicillin-resistant Staphylococcus aureus N315 assessed as reduction in bacterial load at 4 times MIC after 120 mins by time kill assay (reference value: 5.77 log10CFU/ml); type: functional
Staphylococcus aureus [27] = assay: Bactericidal activity against methicillin-resistant Staphylococcus aureus N315 assessed as reduction in bacterial load at 4 times MIC after 140 mins by time kill assay (reference value: 6.413 log10CFU/ml); type: functional
Staphylococcus aureus [28] = assay: Bactericidal activity against methicillin-resistant Staphylococcus aureus N315 assessed as reduction in bacterial load at 4 times MIC after 160 mins by time kill assay (reference value: 7.47 log10CFU/ml); type: functional
Staphylococcus aureus [29] = assay: Bactericidal activity against methicillin-resistant Staphylococcus aureus N315 assessed as reduction in bacterial load at 4 times MIC after 180 mins by time kill assay (reference value: 8.63 log10CFU/ml); type: functional
Staphylococcus aureus [30] = assay: Bactericidal activity against methicillin-resistant Staphylococcus aureus N315 assessed as reduction in bacterial load at 4 times MIC after 200 mins by time kill assay (reference value: 9.84 log10CFU/ml); type: functional
Staphylococcus aureus [31] = assay: Bactericidal activity against methicillin-resistant Staphylococcus aureus N315 assessed as reduction in bacterial load at 4 times MIC after 220 mins by time kill assay (reference value: 10.39 log10CFU/ml); type: functional
Staphylococcus aureus [32] = assay: Bactericidal activity against methicillin-resistant Staphylococcus aureus N315 assessed as reduction in bacterial load at 4 times MIC after 240 mins by time kill assay (reference value: 10.42 log10CFU/ml); type: functional
Staphylococcus aureus [33] = assay: Bactericidal activity against methicillin-resistant Staphylococcus aureus N315 assessed as reduction in bacterial load at 4 times MIC after 270 mins by time kill assay (reference value: 10.26 log10CFU/ml); type: functional

Row | SMILES | MIC (Staphylococcus aureus [1]) [µg/mL] | MIC (Staphylococcus aureus [2]) [µg/mL] | MIC (Bacillus subtilis) [µg/mL] | MIC (Micrococcus luteus) [µg/mL] | MIC (Escherichia coli [3]) [µg/mL] | MIC (Escherichia coli [4]) [µg/mL] | MIC (Shigella dysenteriae [5]) [µg/mL] | MIC (Pseudomonas aeruginosa) [µg/mL] | MIC (Bacillus) [µg/mL] | MIC (Salmonella typhi) [µg/mL] | MIC (Candida albicans) [µg/mL] | MIC (Pichia norvegensis) [µg/mL] | MIC (Cyberlindnera jadinii) [µg/mL] | MIC (Aspergillus flavus [6]) [µg/mL] | MIC (Saccharomyces cerevisiae) [µg/mL] | MIC (Staphylococcus aureus [10]) [µM] | MIC (Staphylococcus aureus [11]) [µM] | MIC (Staphylococcus aureus [12]) [µM] | MIC (Staphylococcus aureus [13]) [µM] | MIC (Staphylococcus aureus [14]) [µM] | also measured
1 | BrCCCOCc1c(-c2ccccc2)nc2sc3ccccc3n12 | 8 (≈ 19.9 µM) | 32 (≈ 79.7 µM) | 4 (≈ 9.97 µM) | 32 (≈ 79.7 µM) | 16 (≈ 39.9 µM) | 32 (≈ 79.7 µM) | 4 (≈ 9.97 µM) | 8 (≈ 19.9 µM) | 16 (≈ 39.9 µM) | 16 (≈ 39.9 µM) | 4 (≈ 9.97 µM) | 32 (≈ 79.7 µM) | 64 (≈ 159 µM) | 4 (≈ 9.97 µM) | 8 (≈ 19.9 µM) |  |  |  |  |  | Ratio (Aspergillus flavus [7]): 64; Ratio (Shigella dysenteriae [8]): 4; Ratio (Shigella dysenteriae [9]): 4
2 | O=C(N[C@H](CO)[C@H](O)c1ccc([N+](=O)[O-])cc1)C(Cl)Cl [CHLORAMPHENICOL] | 16 (≈ 49.5 µM) | 16 (≈ 49.5 µM) | 32 (≈ 99 µM) | 8 (≈ 24.8 µM) | 32 (≈ 99 µM) | 32 (≈ 99 µM) | 16 (≈ 49.5 µM) | 32 (≈ 99 µM) | 32 (≈ 99 µM) | 32 (≈ 99 µM) |  |  |  |  |  | 14 (≈ 4.52 µg/mL) | 14 (≈ 4.52 µg/mL) | 14 (≈ 4.52 µg/mL) | 33 (≈ 10.7 µg/mL) | 33 (≈ 10.7 µg/mL) | MIC (Staphylococcus aureus [15]): 33 µM (≈ 10.7 µg/mL); MIC (Staphylococcus aureus [16]): 67 µM (≈ 21.6 µg/mL); MIC (Staphylococcus aureus [17]): 67 µM (≈ 21.6 µg/mL)
3 | Cc1ncc([N+](=O)[O-])n1CCCOCc1c(-c2ccccc2)nc2sc3ccccc3n12 | 2 (≈ 4.47 µM) | 8 (≈ 17.9 µM) | 4 (≈ 8.94 µM) | 32 (≈ 71.5 µM) | 4 (≈ 8.94 µM) | 4 (≈ 8.94 µM) | 4 (≈ 8.94 µM) | 2 (≈ 4.47 µM) | 8 (≈ 17.9 µM) | 1 (≈ 2.23 µM) | 2 (≈ 4.47 µM) | 16 (≈ 35.8 µM) | 32 (≈ 71.5 µM) | 8 (≈ 17.9 µM) | 256 (≈ 572 µM) | 13 (≈ 5.82 µg/mL) | 13 (≈ 5.82 µg/mL) | 14 (≈ 6.27 µg/mL) | 16 (≈ 7.16 µg/mL) | 15 (≈ 6.71 µg/mL) | Ratio (Staphylococcus aureus [18]): 4 - 8; Ratio (Staphylococcus aureus [19]): 4 - 8; Activity (Staphylococcus aureus [20]): >3 log10CFU/ml; Activity (Staphylococcus aureus [21]): Active; Activity (Calf thymus DNA [22]): Active; Activity (Calf thymus DNA [23]): Dose-dependent effect; Activity (Calf thymus DNA [24]): Active; inhibition (Calf thymus DNA [25]): Active; MIC (Staphylococcus aureus [15]): 15 µM (≈ 6.71 µg/mL); MIC (Staphylococcus aureus [16]): 15 µM (≈ 6.71 µg/mL); MIC (Staphylococcus aureus [17]): 15 µM (≈ 6.71 µg/mL); Activity (Staphylococcus aureus [26]): 5.77 log10CFU/ml; Activity (Staphylococcus aureus [27]): 3.29 log10CFU/ml; Activity (Staphylococcus aureus [28]): 1.98 log10CFU/ml; Activity (Staphylococcus aureus [29]): 1.81 log10CFU/ml; Activity (Staphylococcus aureus [30]): 1.74 log10CFU/ml; Activity (Staphylococcus aureus [31]): 1.66 log10CFU/ml; Activity (Staphylococcus aureus [32]): 1.6 log10CFU/ml; Activity (Staphylococcus aureus [33]): 1.81 log10CFU/ml
4 | BrCCCCCCCCCCOCc1c(-c2ccccc2)nc2sc3ccccc3n12 | 64 (≈ 128 µM) | 32 (≈ 64.1 µM) | 8 (≈ 16 µM) | 32 (≈ 64.1 µM) | 16 (≈ 32 µM) | 128 (≈ 256 µM) | 64 (≈ 128 µM) | 16 (≈ 32 µM) | 16 (≈ 32 µM) | 128 (≈ 256 µM) | 4 (≈ 8.01 µM) | 64 (≈ 128 µM) | 64 (≈ 128 µM) | 16 (≈ 32 µM) | 64 (≈ 128 µM) |  |  |  |  |  | 
5 | c1ccc(-c2nc3sc4ccccc4n3c2COCCCCCCCCCCn2cncn2)cc1 | 16 (≈ 32.8 µM) | 32 (≈ 65.6 µM) | 16 (≈ 32.8 µM) | 64 (≈ 131 µM) | 32 (≈ 65.6 µM) | 64 (≈ 131 µM) | 16 (≈ 32.8 µM) | 32 (≈ 65.6 µM) | 128 (≈ 262 µM) | 16 (≈ 32.8 µM) | 16 (≈ 32.8 µM) | 16 (≈ 32.8 µM) | > 512 | 16 (≈ 32.8 µM) | 16 (≈ 32.8 µM) |  |  |  |  |  | 
